Test results published in ChEMBL document CHEMBL1146650, “1,7-annulated indolocarbazoles as cyclin-dependent kinase inhibitors” (Bioorg Med Chem Lett, 2004).

How the values were obtained:
[1] = molecular target: Cyclin-dependent kinase 4/cyclin D1 (Homo sapiens, UniProt P11802); experiment: Inhibitory activity against human Cyclin D1-cyclin-dependent kinase 4 activity; assay type: protein-complex assay
[2] = molecular target: Cyclin-dependent kinase 2/cyclin E (Homo sapiens, UniProt P24941); experiment: Inhibition of human Cyclin E-cyclin-dependent kinase 2; assay type: protein-complex assay
HCT-116 = experiment: Cytotoxic activity against human colon HCT116 cell line; assay type: functional, cell-based
[3] = molecular target: Cyclin-dependent kinase 2 (Homo sapiens, UniProt P24941); experiment: Inhibition of Cyclin-dependent kinase 2
[4] = molecular target: Cyclin-dependent kinase 4 (Homo sapiens, UniProt P11802); experiment: Inhibition of Cyclin-dependent kinase 4
Cyclin-dependent kinase 4, sequence (P11802 whole entry): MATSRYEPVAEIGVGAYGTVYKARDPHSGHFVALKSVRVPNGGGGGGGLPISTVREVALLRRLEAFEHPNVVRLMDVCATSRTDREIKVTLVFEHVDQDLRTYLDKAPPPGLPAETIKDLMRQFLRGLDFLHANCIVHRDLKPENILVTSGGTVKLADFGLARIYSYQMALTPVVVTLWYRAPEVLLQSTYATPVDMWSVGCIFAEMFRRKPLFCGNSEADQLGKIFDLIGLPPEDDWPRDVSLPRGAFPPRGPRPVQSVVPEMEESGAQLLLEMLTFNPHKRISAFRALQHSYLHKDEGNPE

Cyclin-dependent kinase 4/cyclin D1, sequence (P11802 whole entry): as above
Cyclin-dependent kinase 4/cyclin D1, sequence (P24385 whole entry, further chain): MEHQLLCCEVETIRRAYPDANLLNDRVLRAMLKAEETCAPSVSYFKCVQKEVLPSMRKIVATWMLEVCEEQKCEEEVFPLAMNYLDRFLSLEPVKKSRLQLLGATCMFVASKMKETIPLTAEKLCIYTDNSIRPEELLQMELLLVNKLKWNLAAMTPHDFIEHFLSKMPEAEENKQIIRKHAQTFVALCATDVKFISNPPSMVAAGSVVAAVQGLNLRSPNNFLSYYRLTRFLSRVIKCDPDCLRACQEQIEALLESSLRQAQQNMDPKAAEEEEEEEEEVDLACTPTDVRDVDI

SMILES: COC(=O)c1ccc2[nH]c3c(c4c(c5c6cccc7c6n(c35)CCC7)C(=O)NC4=O)c2c1
- IC50 [1]: > 2000 nM

SMILES: O=C1NC(=O)c2c1c1c3ccccc3[nH]c1c1c2c2cccc3c2n1CCC3
- IC50 [2]: > 1000 nM
- IC50 [1]: 110 nM
- IC50 (HCT-116): 1600 nM

SMILES: O=C1NC(=O)c2c1c1c3ccc(Br)cc3[nH]c1c1c2c2cccc3c2n1CCC3
- IC50 [2]: 1000 nM
- IC50 [1]: 90 nM
- IC50 (HCT-116): 2300 nM

SMILES: O=C1NC(=O)c2c1c1c3ccccc3n3c1c1c2c2ccccc2n1[C@H]1CC[C@@H]3O1
- IC50 [3]: 540 nM
- IC50 [4]: 680 nM

SMILES: O=C1NC(=O)c2c1c1c3cc(Br)ccc3[nH]c1c1c2c2cccc3c2n1CCC3
- IC50 [1]: > 2000 nM

SMILES: O=C1NC(=O)c2c1c1c3ccc(F)cc3[nH]c1c1c2c2cccc3c2n1CCC3
- IC50 [2]: > 200 nM
- IC50 [1]: 420 nM
- IC50 (HCT-116): 2370 nM

SMILES: O=C1NC(=O)c2c1c1c3ccccc3[nH]c1c1c2c2cccc3c2n1CCCCC3
- IC50 [2]: > 2000 nM
- IC50 [1]: 120 nM
- IC50 (HCT-116): 1250 nM

SMILES: O=C1NC(=O)c2c1c1c3ccc(CN4CCCNCC4)cc3[nH]c1c1c2c2cccc3c2n1CCC3
- IC50 [1]: 79 nM
- IC50 (HCT-116): 7600 nM

SMILES: O=C1NC(=O)c2c1c1c3ccc(Cl)cc3[nH]c1c1c2c2cccc3c2n1CCC3
- IC50 [2]: > 200 nM
- IC50 [1]: 110 nM
- IC50 (HCT-116): 780 nM

SMILES: O=C1NC(=O)c2c1c1c3cc(F)c(F)cc3[nH]c1c1c2c2cccc3c2n1CCC3
- IC50 [1]: > 2000 nM

SMILES: O=C1NC(=O)c2c1c1c3ccccc3[nH]c1c1c2c2cccc3c2n1CCCC3
- IC50 [2]: 1000 nM
- IC50 [1]: 94 nM
- IC50 (HCT-116): 5160 nM

SMILES: O=C1NC(=O)c2c1c1c3ccc(CN4CCCCC4)cc3[nH]c1c1c2c2cccc3c2n1CCC3
- IC50 [1]: 87 nM
- IC50 (HCT-116): 320 nM

SMILES: O=C1NC(=O)c2c1c1c3ccc(CN4CCCC4)cc3[nH]c1c1c2c2cccc3c2n1CCC3
- IC50 [1]: 50 nM
- IC50 (HCT-116): 170 nM

SMILES: O=C1NC(=O)c2c1c1c3ccc(CN4CCC4)cc3[nH]c1c1c2c2cccc3c2n1CCC3
- IC50 [1]: 75 nM
- IC50 (HCT-116): 230 nM

SMILES: O=C1NC(=O)c2c1c1c3cc(F)ccc3[nH]c1c1c2c2cccc3c2n1CCC3
- IC50 [1]: > 2000 nM

SMILES: NCc1ccc2c(c1)[nH]c1c2c2c(c3c4cccc5c4n(c13)CCC5)C(=O)NC2=O
- IC50 [1]: 170 nM
- IC50 (HCT-116): 2260 nM

SMILES: O=C1NC(=O)c2c1c1c3ccc(CO)cc3[nH]c1c1c2c2cccc3c2n1CCC3
- IC50 [1]: 52 nM
- IC50 (HCT-116): 340 nM

SMILES: COC(=O)c1ccc2c(c1)[nH]c1c2c2c(c3c4cccc5c4n(c13)CCC5)C(=O)NC2=O
- IC50 [1]: > 2000 nM

SMILES: O=C1NC(=O)c2c1c1c3ccc(CN4CCNCC4)cc3[nH]c1c1c2c2cccc3c2n1CCC3
- IC50 [1]: 65 nM
- IC50 (HCT-116): > 10000 nM

SMILES: O=C1NC(=O)c2c1c1c([nH]c3cccc(F)c31)c1c2c2cccc3c2n1CCC3
- IC50 [1]: > 2000 nM

SMILES: O=C1NC(=O)c2c1c1c3ccc(CN4CCOCC4)cc3[nH]c1c1c2c2cccc3c2n1CCC3
- IC50 [1]: 75 nM
- IC50 (HCT-116): 370 nM

SMILES: O=C1NC(=O)c2c1c1c3ccccc3[nH]c1c1c2c2cccc3c2n1CC3
- IC50 [2]: > 2000 nM
- IC50 [1]: 240 nM
- IC50 (HCT-116): 1020 nM

SMILES: O=C1NC(=O)c2c1c1c3ccc(CN4CCSCC4)cc3[nH]c1c1c2c2cccc3c2n1CCC3
- IC50 [1]: 90 nM
- IC50 (HCT-116): 600 nM

SMILES: O=C1NC(=O)c2c1c1c3ccc(-c4cccnc4)cc3[nH]c1c1c2c2cccc3c2n1CCC3
- IC50 [1]: 160 nM
- IC50 (HCT-116): 1130 nM

SMILES: O=C1NC(=O)c2c1c1c3ccc(-c4ccncc4)cc3[nH]c1c1c2c2cccc3c2n1CCC3
- IC50 [1]: 590 nM
- IC50 (HCT-116): 3290 nM

SMILES: O=C1NC(=O)c2c1c1c3ccc(C(F)(F)F)cc3[nH]c1c1c2c2cccc3c2n1CCC3
- IC50 [2]: > 2000 nM
- IC50 [1]: 290 nM
- IC50 (HCT-116): 1480 nM
